Patent US20030113784A1, “Regulated expression of recombinant DNA” (priority 2001, published 2003)

System: β-galactosidase expression in C2C12 myoblasts cotransfected with Op8iME and Lac-R
Assay: Time course of IPTG induction of β-galactosidase expression (chemiluminescent assay of cell lysates)
Format: cell-based
Conditions: 5 mM IPTG added sixteen hours post-transfection
Experimental: The time course of IPTG induction of β-galactosidase expression in one of the muscle enhancer and SV40 intron containing constructs was determined. The kinetics of Op8iME induction in C2C12 myoblasts were plotted over the course of 48 hours. Op8iME and the Lac-R were transiently cotransfected into C2C12 myoblasts. Sixteen hours post-transfection, 5 mM IPTG was added. β-galactosidase expression was monitored in cell lysates by chemiluminescent assay (Promega) at a selection of time-points from 1 h to 48 h. IPTG-dependent induction of β-galactosidase began at 4h and increased over time, with a maximum peak at 24 h (FIG. 11).

Question: CC(C)S[C@@H]1O[C@H](CO)[C@H](O)[C@H](O)[C@H]1O [IPTG, isopropylthiogalactoside] was tested. Which “time of maximum peak of IPTG-dependent induction of β-galactosidase” value did it give?
Answer: 24 h

Question: And the “start of IPTG-dependent induction of β-galactosidase” value (time-points 1 h to 48 h)?
Answer: 4 h
